The source made the active and inactive calls.
Key:
Coagulation factor XII = biological target: T1, Coagulation factor XII (Homo sapiens, UniProt P00748); experiment: FXIIa inhibitor potency, concentration-response, biochemical (AID 716); format: functional
T1 sequence (P00748 whole entry): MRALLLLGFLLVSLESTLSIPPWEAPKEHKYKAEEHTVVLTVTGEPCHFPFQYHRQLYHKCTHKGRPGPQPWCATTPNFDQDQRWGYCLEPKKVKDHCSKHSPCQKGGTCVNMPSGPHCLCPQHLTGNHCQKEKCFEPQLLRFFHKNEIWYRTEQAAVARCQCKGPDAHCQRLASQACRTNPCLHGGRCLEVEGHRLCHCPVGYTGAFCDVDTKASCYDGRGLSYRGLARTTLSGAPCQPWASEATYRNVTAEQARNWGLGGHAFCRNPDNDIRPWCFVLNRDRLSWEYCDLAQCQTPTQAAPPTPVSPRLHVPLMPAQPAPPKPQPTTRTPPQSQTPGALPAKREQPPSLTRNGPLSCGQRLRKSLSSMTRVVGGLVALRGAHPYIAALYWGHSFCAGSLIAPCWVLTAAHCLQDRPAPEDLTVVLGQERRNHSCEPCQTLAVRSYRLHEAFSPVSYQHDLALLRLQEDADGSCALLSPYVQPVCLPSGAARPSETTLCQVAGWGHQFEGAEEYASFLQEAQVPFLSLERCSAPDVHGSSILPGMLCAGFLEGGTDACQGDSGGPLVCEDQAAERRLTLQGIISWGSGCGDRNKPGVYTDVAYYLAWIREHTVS

[1] = biological target: T2, Type-1 angiotensin II receptor (Homo sapiens, UniProt P30556); experiment: AT1 receptor agonists, dose response, selectivity assay for APJ receptor agonist project, cell-based, uHTS hits (AID 488865); format: functional;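 note: beta-arrestin recruitment to AT1 measured by enzyme fragment complementation luminescence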
T2 sequence (P30556 whole entry): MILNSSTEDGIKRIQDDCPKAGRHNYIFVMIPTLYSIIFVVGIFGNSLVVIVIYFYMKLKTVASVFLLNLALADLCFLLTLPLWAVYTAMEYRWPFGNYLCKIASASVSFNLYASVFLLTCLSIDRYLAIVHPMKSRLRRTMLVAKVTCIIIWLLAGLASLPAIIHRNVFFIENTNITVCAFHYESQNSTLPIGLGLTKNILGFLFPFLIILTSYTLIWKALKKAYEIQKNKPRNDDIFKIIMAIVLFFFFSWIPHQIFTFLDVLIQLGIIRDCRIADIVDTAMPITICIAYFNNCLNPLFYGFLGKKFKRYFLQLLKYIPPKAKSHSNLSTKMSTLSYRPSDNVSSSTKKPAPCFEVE

Vero [2] = experiment: cells; format: functional; settings: Chlorocebus sabaeus
[3] = Luminescence Cell-Based Dose Retest to Confirm Inhibitors of Cancer Stem Cells. [Related pubchem assays (depositor defined):AID2717, AID2721]; format: functional; settings: Homo sapiens
Vero [4] = experiment: cells; format: functional, cell-based; settings: Chlorocebus sabaeus
[5] = biological target: E3 ubiquitin-protein ligase Mdm2/Protein Mdm4 (Homo sapiens, UniProt O15151+Q00987); experiment: Mdm2-MdmX interaction inhibitors, dose response, luminescence detection (AID 504593); format: functional
HEK293 [6] = experiment: NOD1 signaling inhibitors, primary screen, cell-based, luminescence, uHTS (AID 1578); format: functional; settings: Homo sapiens
[7] = biological target: Nucleotide-binding oligomerization domain-containing protein 2 (Homo sapiens, UniProt Q9HC29); experiment: NOD2 signaling inhibitors, cell-based, luminescence, uHTS, HEK293 (AID 1566); format: functional
HEK293 [8] = experiment: cells; format: functional, cell-based; settings: Homo sapiens
HEK293 [9] = experiment: cells; format: functional, cell-based; settings: Homo sapiens; remark: listed apart in the source
HEK293 [10] = experiment: NOD2 signaling inhibitors in MDP-stimulated cells, cell-based, uHTS, luminescence (AID 2001); format: functional; settings: Homo sapiens
HEK293 [11] = experiment: cells; format: functional, cell-based; settings: Homo sapiens; remark: listed apart in the source
[12] = biological target: Dual specificity tyrosine-phosphorylation-regulated kinase 1A (Rattus norvegicus, UniProt Q63470); format: biochemical, Homo sapiens
[13] = biological target: T3, Alkaline phosphatase, tissue-nonspecific isozyme (Homo sapiens, UniProt P05186); experiment: human TNAP enzyme inhibitors, SAR follow-up, biochemical, luminescent, dose response (AID 1056)
T3 sequence (P05186 whole entry): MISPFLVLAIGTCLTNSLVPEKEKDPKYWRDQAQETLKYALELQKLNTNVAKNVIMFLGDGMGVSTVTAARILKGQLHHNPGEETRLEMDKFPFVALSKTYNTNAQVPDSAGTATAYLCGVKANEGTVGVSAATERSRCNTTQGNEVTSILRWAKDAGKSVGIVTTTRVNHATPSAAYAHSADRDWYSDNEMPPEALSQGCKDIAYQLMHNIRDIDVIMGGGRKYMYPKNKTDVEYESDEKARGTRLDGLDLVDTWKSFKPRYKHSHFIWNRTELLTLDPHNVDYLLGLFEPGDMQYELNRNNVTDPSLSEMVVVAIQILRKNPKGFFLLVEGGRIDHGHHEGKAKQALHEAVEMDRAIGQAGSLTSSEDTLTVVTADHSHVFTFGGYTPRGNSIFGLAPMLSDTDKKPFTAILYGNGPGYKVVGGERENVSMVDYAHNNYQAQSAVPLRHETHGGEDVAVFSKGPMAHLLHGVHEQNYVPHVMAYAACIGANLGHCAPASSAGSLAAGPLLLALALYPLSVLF

[14] = biological target: Alkaline phosphatase, placental type (Homo sapiens, UniProt P05187); experiment: PLAP enzyme inhibitors, confirmation, biochemical, luminescence (AID 1512); format: functional
[15] = biological target: T4, Endoribonuclease toxin MazF (Escherichia coli K-12, UniProt P0AE70); experiment: MazF toxin RNase activators, dose response, biochemical, fluorescence, single-stranded RNA substrate, uHTS hits (AID 588481); format: functional
T4 sequence (P0AE70 whole entry): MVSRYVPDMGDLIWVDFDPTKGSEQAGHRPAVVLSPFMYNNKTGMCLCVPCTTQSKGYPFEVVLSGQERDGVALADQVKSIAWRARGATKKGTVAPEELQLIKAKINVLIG

Troponin, cardiac muscle = Troponin, cardiac muscle (Homo sapiens, UniProt P19429+P45379+P63316); experiment: Fluorescence-based biochemical high throughput dose response assay for activators of the calcium sensitivity of cardiac Regulated Thin Filaments (RTF). [Related pubchem assays (depositor defined):AID493008, AID493018, AID504382, AID504383]; format: protein-complex assay
[16] = biological target: T4, Endoribonuclease toxin MazF; experiment: fluorescent RNA oligo signal without MazF, dose response, counter-screen for MazEF activator project, biochemical, fluorescence, single-stranded RNase substrate (AID 588502); format: functional
[17] = biological target: Voltage-dependent T-type calcium channel subunit alpha-1H (Homo sapiens, UniProt O95180); experiment: Cav3.2 T-type channel inhibitors, cell-based, synthetic library set 1, calcium flux (AID 493022); format: functional
Hexokinase = Hexokinase (Trypanosoma brucei, UniProt Q38C41); experiment: Confirmation assay for inhibitors of Trypanosoma brucei hexokinase 1-Analogue-first series. [Related pubchem assays (depositor defined):AID1430, AID1632, AID2516, AID2560, AID2579, AID2600, AID449725, AID492951]; format: functional
[18] = biological target: T5, Tyrosine-protein phosphatase non-receptor type 22 (Homo sapiens, UniProt Q9Y2R2); experiment: LYP (PTPN22) phosphatase inhibitor potency, SAR follow-up, biochemical, pCAP fluorogenic substrate, fluorescence, set 3 (AID 449727); format: functional
T5 sequence (Q9Y2R2 whole entry): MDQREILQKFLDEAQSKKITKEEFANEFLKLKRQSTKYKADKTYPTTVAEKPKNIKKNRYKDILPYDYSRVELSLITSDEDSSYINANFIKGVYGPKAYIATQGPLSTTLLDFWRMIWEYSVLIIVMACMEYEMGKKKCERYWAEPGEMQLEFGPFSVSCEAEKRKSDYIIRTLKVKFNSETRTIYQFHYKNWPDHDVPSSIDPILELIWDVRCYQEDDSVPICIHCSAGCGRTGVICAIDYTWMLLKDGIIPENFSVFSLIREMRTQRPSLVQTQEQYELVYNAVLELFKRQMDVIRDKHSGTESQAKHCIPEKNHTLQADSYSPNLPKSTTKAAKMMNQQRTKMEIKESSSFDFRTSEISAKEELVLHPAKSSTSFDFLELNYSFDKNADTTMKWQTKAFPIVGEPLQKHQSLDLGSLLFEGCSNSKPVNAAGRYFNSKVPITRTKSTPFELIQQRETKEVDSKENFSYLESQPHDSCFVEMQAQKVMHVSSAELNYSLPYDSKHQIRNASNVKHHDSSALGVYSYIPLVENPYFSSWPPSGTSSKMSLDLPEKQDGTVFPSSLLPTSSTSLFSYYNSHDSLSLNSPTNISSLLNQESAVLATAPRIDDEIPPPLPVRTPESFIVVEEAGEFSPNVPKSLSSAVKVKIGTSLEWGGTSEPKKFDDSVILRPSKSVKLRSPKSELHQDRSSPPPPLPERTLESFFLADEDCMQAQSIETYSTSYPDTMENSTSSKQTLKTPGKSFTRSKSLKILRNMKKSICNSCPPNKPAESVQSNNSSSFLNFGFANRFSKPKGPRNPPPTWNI

[19] = biological target: Dual specificity protein phosphatase 3 (Homo sapiens, UniProt P51452); experiment: SAR VHR1 Fluorescent Assay for In Vitro dose response studies Set 2. [Related pubchem assays (depositor defined):AID1654, AID1661, AID1878]; format: functional
[20] = biological target: T6, Tyrosine-protein phosphatase non-receptor type 7 (Homo sapiens, UniProt P35236); experiment: HePTP (PTPN7) phosphatase inhibitor potency, SAR follow-up, biochemical, set 2 (AID 449736); format: functional
T6 sequence (P35236 whole entry): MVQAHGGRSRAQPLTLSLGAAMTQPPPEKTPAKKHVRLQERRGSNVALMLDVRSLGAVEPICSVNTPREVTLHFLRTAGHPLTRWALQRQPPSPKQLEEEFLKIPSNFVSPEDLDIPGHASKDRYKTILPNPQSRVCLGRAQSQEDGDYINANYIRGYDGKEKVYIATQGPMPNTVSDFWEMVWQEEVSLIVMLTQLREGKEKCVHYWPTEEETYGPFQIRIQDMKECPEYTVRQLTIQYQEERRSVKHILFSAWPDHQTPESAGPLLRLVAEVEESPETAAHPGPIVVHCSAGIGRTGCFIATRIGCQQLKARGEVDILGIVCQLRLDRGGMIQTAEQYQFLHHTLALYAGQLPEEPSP

[21] = biological target: Tyrosine-protein phosphatase non-receptor type 12 (Homo sapiens, UniProt Q05209); experiment: SAR Selectivity Analysis of small molecule inhibitors of PEST using pCAP in a fluorescence assay. [Related pubchem assays (depositor defined):AID1779, AID1784, AID2135]; format: functional
[22] = biological target: T5, Tyrosine-protein phosphatase non-receptor type 22; experiment: SAR LYP1 Fluorescent Assay using OMFP substrate for In Vitro dose response studies - Set 3. [Related pubchem assays (depositor defined):AID1779, AID1784, AID2140, AID2686]; format: functional
[23] = biological target: T6, Tyrosine-protein phosphatase non-receptor type 7; experiment: redox-dependent HePTP inhibition, mechanism study, biochemical, fluorescence (AID 2068); format: functional
[24] = biological target: T7, Dual specificity protein phosphatase 6 (Rattus norvegicus, UniProt Q64346); format: functional;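 note: confirmatory in vitro dose-response testing of MKP-3 inhibition; recombinant His-tagged MKP-3 made in E. coli BL21 with OMFP substrate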
T7 sequence (Q64346 whole entry): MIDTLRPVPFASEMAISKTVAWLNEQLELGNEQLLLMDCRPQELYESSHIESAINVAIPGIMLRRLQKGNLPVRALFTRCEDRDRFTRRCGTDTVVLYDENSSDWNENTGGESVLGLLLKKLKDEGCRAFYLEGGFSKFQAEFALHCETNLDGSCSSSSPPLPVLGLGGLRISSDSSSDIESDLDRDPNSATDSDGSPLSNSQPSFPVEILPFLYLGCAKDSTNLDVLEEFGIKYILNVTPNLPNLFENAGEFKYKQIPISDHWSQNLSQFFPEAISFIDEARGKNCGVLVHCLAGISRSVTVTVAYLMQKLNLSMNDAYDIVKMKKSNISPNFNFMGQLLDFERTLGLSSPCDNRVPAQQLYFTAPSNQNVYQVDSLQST

With `CCOC(=O)c1nnn(-c2nonc2N)c1CNc1ccc(C)c(Br)c1` the IC50 (Coagulation factor XII) was > 50 µM (inactive).
In the case of `C=CCSc1nc(=O)c(CC)c(O)n1C(C)CC` (configuration not stated), the EC50 [1] is reported as > 100 µM (inactive).
In the case of `O=C(/C=C/c1c(F)cccc1Cl)c1ccc(O)cc1`, the CC50 (Vero [2]) is reported as 19.9 µM (active), the AC50 [3] is reported as 6.85 µM (active) and the IC50 (Vero [4]) is reported as 23.6 µM (active). The IC50 [5] was 5.74 µM (active).
In the case of `Clc1c(Cl)c(Cl)c2[nH]nnc2c1Cl`, the EC50 (HEK293 [6]) is reported as 2.24 µM (active), the EC50 [7] is reported as 3.2 µM (active) and the IC50 (HEK293 [8]) is reported as 13.9 µM (active). For the same compound, the IC50 (HEK293 [9]) was > 20 µM (inactive), the IC50 (HEK293 [10]) was 7.94 µM (active) and the IC50 (HEK293 [11]) was > 20 µM (inactive). The AC50 [12] was 5.99 µM (active).
In the case of `C=CCn1c(SCC(=O)c2ccc(O)c(O)c2)nnc1-c1ccc(Cl)cc1`, the IC50 [13] is reported as > 100 µM (inactive) and the IC50 [14] is reported as 11.8 µM (active).
For `O=[N+]([O-])c1ccc(NN=Cc2cccc3ccccc23)nc1`, the EC50 [15] was > 99 µM (inactive), the EC50 (Troponin, cardiac muscle) was 26.6 µM (inactive) and the EC50 [16] was 45.4 µM (inactive).
With `CC(Oc1ccccc1)C(=O)Nc1nnc(-c2ccc(F)c(F)c2)o1` (configuration not stated) the EC50 [17] was 10 µM (active).
In the case of `COc1ccc(Nc2cc(Cl)ccc2C(=O)O)cc1`, the IC50 (Hexokinase) is reported as > 25 µM (inactive).
For `CCOc1cc(/C=C2/S/C(=N/c3ccc4ccccc4c3)NC2=O)cc(Cl)c1OCC(=O)O`, the IC50 [18] was 12.3 µM (active), the IC50 [19] was 0.48 µM (active) and the IC50 [20] was 0.466 µM (active). For the same compound, the IC50 [21] was 4.76 µM (active), the IC50 [22] was 15.6 µM (active) and the IC50 [23] was 0.373 µM (active). The IC50 [24] was 26.5 µM (active).
